Source: patent US20080220416A1, “Compositions for Inhibiting Cell Growth and Inducing Apoptosis in Cancer Cells and Methods of Use Thereof” (THE BOARD OF TRUSTEES OF THE UNIVERSITY OF ILLINOI, priority 2004, published 2008)
Peptide text beside a SMILES is read from it. * marks the point of attachment. Cbz = O=C(OCc1ccccc1)*

Legend:
[1] = tested on: C8161 melanoma cells; test: Proliferating versus serum-deprived C8161 melanoma cells, NOXA and apoptosis; assay type: cell-based, human; settings: for NOXA induction: proliferating (10% FCS) or serum-deprived (no serum) C8161
Procedure: C8161 melanoma cells were induced into a relatively quiescent state by serum withdrawal. Proliferation assays were conducted in the presence or absence of 10% fetal calf serum (FCS) by manual counting of melanoma cells in triplicate wells on days 0, 1, 2 and 3. […] By phase contrast microscopy, the withdrawal of FCS arrested the cells (data not shown). This growth arrest was confirmed by Western blots of the cells that were maintained as either rapidly proliferating cells in the presence of 10% FCS or were growth arrested by serum withdrawal and washing with PBS for either 1 or 2 days. Whole cell extracts were prepared and Western blot analysis was performed as described above in Example 8 using antibodies to NOXA, p21 (SC-817, Santa Cruz Biotechnology, Santa Cruz, Calif.) and β-actin as described here and above.
Growth arrest induced by serum withdrawal was confirmed by induction of p21. […] Thus, not only can proteasome inhibitors selectively induce NOXA and kill melanoma cells and not kill melanocytes independent of p53, but melanoma cells are susceptible to killing even when maintained in a relatively quiescent state in vitro.

[2] = tested on: melanoma cell lines; test: Proteasome inhibitors, apoptosis of melanoma cell lines (Annexin V FITC flow cytometry); assay type: cell-based, human
Procedure: The proteasome inhibitors lactacystin, MG-132, and bortezomib were evaluated for the ability to induce apoptosis in malignant melanoma cell lines (n=3) including an early passage line, RJ002L. MG-132 was obtained from Calbiochem (La Jolla, Calif.) and dissolved in DMSO. Lactacystin was purchased from Sigma Chemical Co. (St. Louis, Mo.) and dissolved in PBS. Bortezomib was obtained from a pharmacy as VELCADE (bortezomib) for Injection from a single use vial for intravenous use only (Millennium Pharmaceuticals, Cambridge, Mass.). A cell line with wild-type p53 (RJ002L) and two melanoma cell lines with mutant p53 alleles (C8161 and MUM2B) were included in this study. Two additional melanoma cell lines were also used: cutaneous SK-MeI-28 cells and primary, early passage MG012 cells. In addition, five normal melanocyte culture cell lines (MC-005, MC-006, MC-008, MC-009 and MC-011) were examined. Prior to testing, the melanoma cell lines were maintained in RPMI supplemented with 10% FBS. Normal human melanocytes were isolated from neonatal foreskins as previously described (Qin J et al., 2004, Mol Cancer Ther 3:895-902, 2004) and cultured with medium 154 containing growth supplements (Cascade Biologics, Portland, Oreg.).
To assess the effect of proteasome inhibitors on the cell lines, the cells were grown in suitable culture media as described above. Highly proliferating cells (i.e., cells that had reached approximately 30% confluency) were exposed to the inhibitors as described below. The culture media was replenished with media containing proteasome inhibitors at various concentrations and the cells were incubated for 24 hours prior to harvesting the cells for further analysis.
Following treatment with the proteasome inhibitors, the melanoma and melanocyte cell cultures were assayed for apoptotic cells using the APO TARGET Annexin V FITC staining kit (Biosource, Camarillo, Calif.) according to the manufacturer's instructions followed by flow cytometric analysis using FACScaliber (Becton Dickinson, Palo Alto, Calif.) as described in Qin, J. et al., 2001, Nat Med 7: 385-386. In some cases, cell cycle and apoptosis analysis was measured using propidium iodide staining and flow cytometry as described. Cells with DNA content less than the G0 amount of untreated cells were considered apoptotic. For cell analysis, DNA histograms were analyzed using MultiCycle for Windows (Phoenix Flow Systems, San Diego, Calif.) as described in Denning, M. F. et al., 1998, J Biol Chem 273: 29995-30002.

Row | Compound | NOXA induction [1] | cell death by apoptosis in serum-deprived cells ([1]; serum-deprived versus proliferating C8161) | concentration triggering significant apoptotic response (p<0.05) ([2]; all melanoma cell lines examined) [µM] | dead cells ([2]; all melanoma cell lines tested, 10 μM, 24 hrs continuous exposure) | apoptotic response to increasing concentrations ([2]; RJ002L, MG012, C8161, MUM2B, SK-MeI-28, 1-10 μM, 24 hrs)
1 | CC(C)C[C@H](NC(=O)[C@H](Cc1ccccc1)NC(=O)c1cnccn1)B(O)O [bortezomib, N-(2-pyrazine)carbonyl-L-phenylalanine-L-leucine boronic acid] | trigger prominent NOXA induction | comparable to that seen in bortezomib-treated proliferating melanoma cells | ≥ 0.1 | 30-70% | –
2 | CC(C)C[C@@H](C=O)NC(=O)[C@H](CC(C)C)NC(=O)[C@H](CC(C)C)NC(=O)OCc1ccccc1 [MG-132, benzoxycarbonyl-Leucyl-Leucyl-Leucyl-aldehyde] (Cbz-Leu-Leu-Leu-aldehyde) | trigger prominent NOXA induction | – | – | – | significantly enhanced apoptotic responses
